Measurements reported in paper PMC4007590, “Development of an oligonucleotide-based fluorescence assay for the identification of tyrosyl-DNA phosphodiesterase 1 (TDP1) inhibitors” (Analytical Biochemistry, 2014).
Read-outs that look alike come from different tables or passages of the source.

Target: T1, tyrosyl-DNA phosphodiesterase 1 (TDP1) (Homo sapiens, UniProt Q9NUW8)
T1 construct: catalytic domain of human TDP1
Assay: Gyrasol fluorescence quench assay, FITC-phosphotyrosyl […]mer oligonucleotide substrate, recombinant TDP1
Format: biochemical

T1 sequence (Q9NUW8 149-608 limits assumed): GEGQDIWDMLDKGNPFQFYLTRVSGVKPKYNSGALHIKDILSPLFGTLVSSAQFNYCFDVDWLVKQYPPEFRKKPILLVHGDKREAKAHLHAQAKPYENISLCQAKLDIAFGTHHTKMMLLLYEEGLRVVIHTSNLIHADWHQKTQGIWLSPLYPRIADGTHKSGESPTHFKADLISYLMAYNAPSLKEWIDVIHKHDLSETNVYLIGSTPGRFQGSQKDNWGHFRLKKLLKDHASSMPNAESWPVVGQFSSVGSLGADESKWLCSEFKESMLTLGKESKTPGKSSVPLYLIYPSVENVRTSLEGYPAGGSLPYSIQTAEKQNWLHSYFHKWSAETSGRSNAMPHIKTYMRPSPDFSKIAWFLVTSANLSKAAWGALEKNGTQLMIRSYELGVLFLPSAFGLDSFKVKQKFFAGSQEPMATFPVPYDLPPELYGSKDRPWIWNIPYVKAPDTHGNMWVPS

| Structure (SMILES) | IC50 (read-out: IC50) | IC50 |
| --- | --- | --- |
| Cc1ccc(C(=O)Nc2ccc(S(=O)(=O)O)c3cc(S(=O)(=O)O)cc(S(=O)(=O)O)c23)cc1NC(=O)c1cccc(NC(=O)Nc2cccc(C(=O)Nc3cc(C(=O)Nc4ccc(S(=O)(=O)O)c5cc(S(=O)(=O)O)cc(S(=O)(=O)O)c45)ccc3C)c2)c1 [Suramin] | 5 µM | – |
| [O]=[V]([OH])([OH])[OH] [sodium orthovanadate] | – | 4 µM |
